The text below walks through data of patent EP0825877B1, “COMPOSITION FOR PREVENTION OF POSTERIOR CAPSULE OPACIFICATION” (Pfizer Health AB, priority 1995, dated 1996).

For series [1], the system named is secondary cataract formation. The series can be described thus: In vivo study in rabbits: secondary cataract weighed two months after phacoemulsification, IOL implantation and doxorubicin injection. Also noted: species or system Albino rabbits. The note with it: 1 µg doxorubicin; 100 µl into the capsular bag behind the IOL; two months postoperatively. As to the method: Albino rabbits were used. In both eyes the crystalline lens was removed by phacoemusification. In both eyes a PMMA IOL was implanted into the capsular bag. In one eye 100 µl of the doxorubicin-Healon slution was injected into the capsular bag behind the IOL. The fellow eye received 100 µ 1 Healon. Two months postoperatively the animals were killed, and the secondary cataracts were removed and weighed to the neariest mg. In one group the doxorubicin was injected dissolved in ta buffer solution instead of Healon. This in order to compare the efficacy when doxorubicin was dissolved in either Healon or buffer. There was a dose dependent inhibitory effect of doxorubicin dissolved in Healon. The doses of 3, 1 and 0.3 µg all gave a significant decrease of the secondary cataract formation. When comparing the dosage 1 µg injected in either Healon of buffer, there was a significant better inibitory effect when doxorubicin was delivered in Healon.
The amount of secondary cataract tissue was typically: […]

The nature of series [2]: Diffusion experiment in a Sundelöf cell. In kind it is physicochemical. The note with it: 100 µg/ml of Doxorubicin; Sundelöfcell; hyaluronate 10 mg/ml. The method, then: Doxorubicin is slowly released from the hyaluronate-doxorubicine solution. […] The diffusion of Doxorubicine out of the hyaluronate solution is more than three times slower than the diffusion of doxorubicine in water. In a diffusion experiment using 100 µg/ml of Doxorubicin in a Sundelöfcell (Sundelöf L-O, 1982, Anal. Biochem, 127,282-286, Laurent T C, Preston B N Sundelöf L-O Van Damme M P, 1982, Anal. Biochem, 127, 287-292), it took 20 hours for 20 % of doxorubicin in water to diffuse into the upper compartment as compared to 70 hours for the doxorubicine in hyaluronate (10 mg/ml).

Series [3] concerns secondary cataract formation. The experiment in a line: In vivo secondary cataract formation (PCO wet mass), 5-FU single dose versus slow release. Set-up: species or system rabbits. The conditions noted are these: for inhibition of PCO: PCO measured as wet mass. The method, then: 5 mg of 5-FU was given to rabbits either as a single dose (instant release) or as a slow release formulation prepared according to Example 3 where 5 mg 5-FU was released over 3 or 12 days in vivo. The amount of secondary cataract formation in the rabbits were evaluated according to Lundgren at al (Lundgren B, Jonsson E and Rolfsen W, 1992, Acta Ophthalmol. Suppl 205:25-28). The single saline dose of 5-FU reduced the secondary cataract formation by 50% while the SR-formulation (SR-3 and SR-10) reduced the secondary cataract formation by 70 and 100% respectively.

As for `COc1cccc2c1C(=O)c1c(O)c3c(c(O)c1C2=O)C[C@@](O)(C(=O)CO)C[C@@H]3O[C@H]1C[C@H](N)[C@H](O)[C@H](C)O1` [doxorubicin in buffer, doxorubicin], in series [1], the “amount of secondary cataract tissue” value stood at 65 ± 15 mg. Further, the “time for 20 % of doxorubicin to diffuse into the upper compartment” value in series [2] was determined as 20 h.
Take `O=c1[nH]cc(F)c(=O)[nH]1` [5-FU, 5-fluoro-uracil]: the “inhibition of PCO” value is 50% in series [3] (5 mg administered as a single dose), 70% in series [3] (5 mg delivered over 2-3 days) and > 90% in series [3] (5 mg delivered over 10-12 days). Further, the “reduction of secondary cataract formation” value in series [3] (5 mg of 5-FU, single saline dose or slow release over 3 or 12 days) worked out at 50%.
